Data: patent US20210259246A1, “SUBSTITUTED 4-HETEROARYLOXYPYRIDINES AND SALTS THEREOF AND THEIR USE AS HERBICIDAL AGENTS” (BAYER AKTIENGESELLSCHAFT, priority 2018, published 2021)

Key:
Format in all cases: in vivo
[1] = tested on: Amaranthus retroflexus (AMARE); assay: Herbicidal pre-emergence action; conditions: 1280 g/ha; scored visually after about 3 weeks vs untreated controls; 100% = plants have died, 0% = like control plants
From the text: (§1) Seeds of mono- and dicotyledonous weed plants were placed in plastic pots in sandy loam soil (doubly sown with in each case one species of mono- or dicotyledonous weed plants per pot) and covered with soil. The compounds of the invention, formulated in the form of wettable powders (WP) or as emulsion concentrates (EC), were then applied onto the surface of the covering soil as aqueous suspension or emulsion with addition of 0.5% additive at a water application rate of 600 liters per hectare (converted). After the treatment, the pots were placed in a greenhouse and kept under good growth conditions for the test plants. After about 3 weeks, the effect of the preparations was scored visually in comparison with untreated controls as percentages. For example, 100% activity=the plants have died, 0% activity=like control plants. Tables C1 to C8 below show the effects of selected compounds of the general formula (I) according to Table 1 on various harmful plants and an application rate corresponding to 1280 g/ha, which were obtained by the experimental procedure mentioned above.

[2] = tested on: Matricaria inodora (MATIN); assay: Herbicidal pre-emergence action; conditions: 1280 g/ha; scored visually after about 3 weeks vs untreated controls; 100% = plants have died, 0% = like control plants
From the text: as §1

[3] = tested on: Abutilon theophrasti (ABUTH); assay: Herbicidal pre-emergence action; conditions: 1280 g/ha; scored visually after about 3 weeks vs untreated controls; 100% = plants have died, 0% = like control plants
From the text: as §1

[4] = tested on: Echinochloa crus-galli (ECHCG); assay: Herbicidal pre-emergence action; conditions: 1280 g/ha; scored visually after about 3 weeks vs untreated controls; 100% = plants have died, 0% = like control plants
From the text: as §1

Poa annua (POAAN) [5] = assay: Herbicidal pre-emergence action; conditions: 1280 g/ha; scored visually after about 3 weeks vs untreated controls; 100% = plants have died, 0% = like control plants
From the text: as §1

Stellaria media (STEME) [6] = assay: Herbicidal pre-emergence action; conditions: 1280 g/ha; scored visually after about 3 weeks vs untreated controls; 100% = plants have died, 0% = like control plants
From the text: as §1

Lolium rigidum (LOLRI) = assay: Herbicidal pre-emergence action; conditions: 1280 g/ha; scored visually after about 3 weeks vs untreated controls; 100% = plants have died, 0% = like control plants
From the text: as §1

Setaria viridis (SETVI) [7] = assay: Herbicidal pre-emergence action; conditions: 1280 g/ha; scored visually after about 3 weeks vs untreated controls; 100% = plants have died, 0% = like control plants
From the text: as §1

[8] = tested on: Amaranthus retroflexus (AMARE); assay: Herbicidal post-emergence action; conditions: 1280 g/ha; rated visually about 3 weeks after treatment vs untreated controls; 100% = plants have died, 0% = like control plants
Protocol: (§2) Seeds of mono- and dicotyledonous weed plants were placed in plastic pots in sandy loam soil (doubly sown with in each case one species of mono- or dicotyledonous weed plants per pot), covered with soil and cultivated in a greenhouse under controlled growth conditions. 2 to 3 weeks after sowing, the test plants were treated at the one-leaf stage. The compounds of the invention, formulated in the form of wettable powders (WP) or as emulsion concentrates (EC), were applied onto the green parts of the plants as aqueous suspension or emulsion with addition of 0.5% additive at a water application rate of 600 liters per hectare (converted). After the test plants had been kept in the greenhouse under optimum growth conditions for about 3 weeks, the activity of the preparations was rated visually in comparison to untreated controls. For example, 100% activity=the plants have died, 0% activity=like control plants. Tables B1 to B6 below show the effects of selected compounds of the general formula (I) according to Table 1 on various harmful plants and an application rate corresponding to 1280 g/ha, which were obtained by the experimental procedure mentioned above.

[9] = tested on: Abutilon theophrasti (ABUTH); assay: Herbicidal post-emergence action; conditions: 1280 g/ha; rated visually about 3 weeks after treatment vs untreated controls; 100% = plants have died, 0% = like control plants
Protocol: as §2

[10] = tested on: Echinochloa crus-galli (ECHCG); assay: Herbicidal post-emergence action; conditions: 1280 g/ha; rated visually about 3 weeks after treatment vs untreated controls; 100% = plants have died, 0% = like control plants
Protocol: as §2

Poa annua (POAAN) [11] = assay: Herbicidal post-emergence action; conditions: 1280 g/ha; rated visually about 3 weeks after treatment vs untreated controls; 100% = plants have died, 0% = like control plants
Protocol: as §2

Stellaria media (STEME) [12] = assay: Herbicidal post-emergence action; conditions: 1280 g/ha; rated visually about 3 weeks after treatment vs untreated controls; 100% = plants have died, 0% = like control plants
Protocol: as §2

Setaria viridis (SETVI) [13] = assay: Herbicidal post-emergence action; conditions: 1280 g/ha; rated visually about 3 weeks after treatment vs untreated controls; 100% = plants have died, 0% = like control plants
Protocol: as §2

[14] = tested on: Diplotaxis muralis (DIPTE); assay: Herbicidal early post-emergence action; conditions: 1900 g/ha; scored visually 9 to 12 days after treatment vs untreated controls; 100% = plants have died, 0% = like control plants
Protocol: (§3) Seeds of monocotyledonous or dicotyledonous weed plants were placed in 96-well microtiter plates in quartz sand and grown in a climatized chamber under controlled growth conditions. 5 to 7 days after sowing, the test plants were treated at the cotyledon stage. The compounds according to the invention, formulated in the form of emulsion concentrates (EC), were applied with a water application rate of the equivalent of 2200 liters per hectare. After the test plants had been left to stand in the climatized chamber for 9 to 12 days under optimum growth conditions, the effect of the preparations was scored visually in comparison to untreated controls. For example, 100% activity=the plants have died, 0% activity=like control plants. Tables A1 to A6 below show the effects of selected compounds of the general formula (I) according to Table 1 on various harmful plants and an application rate corresponding to 1900 g/ha, which were obtained by the experimental procedure mentioned above.

Lolium perenne (LOLPE) = assay: Herbicidal early post-emergence action; conditions: 1900 g/ha; scored visually 9 to 12 days after treatment vs untreated controls; 100% = plants have died, 0% = like control plants
Protocol: as §3

Agrostis tenuis (AGSTE) = assay: Herbicidal early post-emergence action; conditions: 1900 g/ha; scored visually 9 to 12 days after treatment vs untreated controls; 100% = plants have died, 0% = like control plants
Protocol: as §3

Poa annua (POAAN) [15] = assay: Herbicidal early post-emergence action; conditions: 1900 g/ha; scored visually 9 to 12 days after treatment vs untreated controls; 100% = plants have died, 0% = like control plants
Protocol: as §3

Setaria viridis (SETVI) [16] = assay: Herbicidal early post-emergence action; conditions: 1900 g/ha; scored visually 9 to 12 days after treatment vs untreated controls; 100% = plants have died, 0% = like control plants
Protocol: as §3

Veronica persica (VERPE) = assay: Herbicidal early post-emergence action; conditions: 1900 g/ha; scored visually 9 to 12 days after treatment vs untreated controls; 100% = plants have died, 0% = like control plants
Protocol: as §3

| SMILES | Pre-emergence action against Amaranthus retroflexus (AMARE) [1] | Pre-emergence action against Matricaria inodora (MATIN) [2] | Pre-emergence action against Abutilon theophrasti (ABUTH) [3] | Pre-emergence action against Echinochloa crus-galli (ECHCG) [4] | Pre-emergence action against Poa annua (POAAN) (Poa annua (POAAN) [5]) | Pre-emergence action against Stellaria media (STEME) (Stellaria media (STEME) [6]) | Pre-emergence action against Lolium rigidum (LOLRI) (Lolium rigidum (LOLRI)) | Pre-emergence action against Setaria viridis (SETVI) (Setaria viridis (SETVI) [7]) | Post-emergence action against Amaranthus retroflexus (AMARE) [8] | Post-emergence action against Abutilon theophrasti (ABUTH) [9] | Post-emergence action against Echinochloa crus-galli (ECHCG) [10] | Post-emergence action against Poa annua (POAAN) (Poa annua (POAAN) [11]) | Post-emergence action against Stellaria media (STEME) (Stellaria media (STEME) [12]) | Post-emergence action against Setaria viridis (SETVI) (Setaria viridis (SETVI) [13]) | Early post-emergence action against Diplotaxis muralis (DIPTE) [14] | Early post-emergence action against Lolium perenne (LOLPE) (Lolium perenne (LOLPE)) | Early post-emergence action against Agrostis tenuis (AGSTE) (Agrostis tenuis (AGSTE)) | Early post-emergence action against Poa annua (POAAN) (Poa annua (POAAN) [15]) | Early post-emergence action against Setaria viridis (SETVI) (Setaria viridis (SETVI) [16]) | Early post-emergence action against Veronica persica (VERPE) (Veronica persica (VERPE)) |
| --- | --- | --- | --- | --- | --- | --- | --- | --- | --- | --- | --- | --- | --- | --- | --- | --- | --- | --- | --- | --- |
| Cc1cc(Oc2ncc(Cl)cn2)c(Sc2ccc(F)cc2)c(C)n1 [Example 1-26, 2,6-Dimethyl-3-(4-fluorophenylthio)-4-(5-chloropyrimidin-2-yloxy)pyridine] | 100% | 100% | 100% | 100% | 100% | 100% | 100% | 100% | 100% | 100% | 100% | 100% | 100% | 90% |  |  |  |  |  |  |
| Cc1cc(Oc2ncc(Cl)cn2)c(Sc2ccc(F)c(F)c2)c(C)n1 [Example 1-27] | 100% | 100% | 90% | 100% | 100% | 100% | 100% | 100% | 100% | 90% | 100% |  | 100% |  |  |  |  |  |  |  |
| Cc1nccc(Oc2ncc(Cl)cn2)c1Sc1ccc(F)cc1 [Example 1-86] |  |  |  |  |  |  |  |  |  |  |  |  |  |  | 80% | 80% | 100% | 100% | 80% | 80% |
| Cc1nccc(Oc2ncc(F)cn2)c1Oc1ncc(F)cn1 [Example 1-91] | 100% | 90% |  |  |  | 90% |  |  |  |  |  |  |  |  |  |  |  |  |  |  |
| COC(=O)c1cc(Oc2ncc(Cl)cn2)c(Sc2ccc(F)cc2)c(C(=O)OC)n1 [Example 1-50] |  |  |  |  |  |  |  |  |  |  |  |  |  |  |  |  | 80% |  |  |  |
| Cc1cc(Oc2ncc(Cl)cn2)c(Sc2ccc(C#N)cc2)c(C)n1 [Example 1-30] | 100% | 90% | 90% | 100% | 100% | 100% | 90% | 90% |  |  | 100% | 100% | 100% |  |  |  |  |  |  |  |
| Cc1cc(Oc2ncc(Cl)cn2)c(Sc2cccc(C(F)(F)F)c2)c(C)n1 [Example 1-28] | 90% | 90% |  |  | 90% | 100% |  |  | 90% |  |  | 100% | 100% |  |  |  |  |  |  |  |
